The values that follow come from US9682953B2, “Amide compounds, compositions and applications thereof” (Advinus Therapeutics Limited, priority 2011, dated 2017).

In test [1] the target is rat Fatty Acid Amide Hydrolase (FAAH) (Rattus norvegicus (Rat), UniProt P97612). As to the kind of experiment: FAAH in vitro fluorescence assay (AAMCA hydrolysis), rat enzyme. The format is biochemical. The note with it: rat FAAH; for IC50: read-out: rFAAH IC50; for inhibition at 0.1 µM: read-out: rFAAH % inhibition at 100 nM, 100 nM (tier I). In outline:
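Rat FAAH, E. coli-expressed with groEL-groES chaperone, used as enriched membrane extract with 10 μM AAMCA in 50 mM HEPES, 1 mM EDTA, 0.1% BSA, pH 7.4 (1% DMSO final).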

In test [2] the target is human Fatty Acid Amide Hydrolase (FAAH) (Homo sapiens (Human), UniProt O00519). The test is described as follows: biochemical. The note with it: for IC50: read-out: hFAAH IC50.

Structures are written as SMILES. Read-outs that look alike come from different tables or passages of the source.

What is called IC50 is the concentration that inhibits the measured activity by half. A word on the inhibition: it is how much of the control response was suppressed.

human Fatty Acid Amide Hydrolase (FAAH), sequence (O00519 30-579): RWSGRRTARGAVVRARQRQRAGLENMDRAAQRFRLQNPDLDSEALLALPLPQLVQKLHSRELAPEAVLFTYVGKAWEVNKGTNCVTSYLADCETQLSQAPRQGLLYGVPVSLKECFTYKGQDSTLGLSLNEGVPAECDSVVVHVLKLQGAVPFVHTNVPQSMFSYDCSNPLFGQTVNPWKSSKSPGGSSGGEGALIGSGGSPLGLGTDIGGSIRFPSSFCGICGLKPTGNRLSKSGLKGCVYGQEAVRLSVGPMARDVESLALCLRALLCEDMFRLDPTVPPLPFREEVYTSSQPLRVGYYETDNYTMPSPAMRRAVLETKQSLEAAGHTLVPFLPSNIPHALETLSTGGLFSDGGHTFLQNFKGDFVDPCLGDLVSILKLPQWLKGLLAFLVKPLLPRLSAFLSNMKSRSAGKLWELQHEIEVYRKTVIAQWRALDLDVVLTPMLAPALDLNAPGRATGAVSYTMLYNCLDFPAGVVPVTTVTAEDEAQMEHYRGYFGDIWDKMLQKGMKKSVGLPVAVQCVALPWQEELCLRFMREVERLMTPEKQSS
rat Fatty Acid Amide Hydrolase (FAAH), sequence (P97612 30-579): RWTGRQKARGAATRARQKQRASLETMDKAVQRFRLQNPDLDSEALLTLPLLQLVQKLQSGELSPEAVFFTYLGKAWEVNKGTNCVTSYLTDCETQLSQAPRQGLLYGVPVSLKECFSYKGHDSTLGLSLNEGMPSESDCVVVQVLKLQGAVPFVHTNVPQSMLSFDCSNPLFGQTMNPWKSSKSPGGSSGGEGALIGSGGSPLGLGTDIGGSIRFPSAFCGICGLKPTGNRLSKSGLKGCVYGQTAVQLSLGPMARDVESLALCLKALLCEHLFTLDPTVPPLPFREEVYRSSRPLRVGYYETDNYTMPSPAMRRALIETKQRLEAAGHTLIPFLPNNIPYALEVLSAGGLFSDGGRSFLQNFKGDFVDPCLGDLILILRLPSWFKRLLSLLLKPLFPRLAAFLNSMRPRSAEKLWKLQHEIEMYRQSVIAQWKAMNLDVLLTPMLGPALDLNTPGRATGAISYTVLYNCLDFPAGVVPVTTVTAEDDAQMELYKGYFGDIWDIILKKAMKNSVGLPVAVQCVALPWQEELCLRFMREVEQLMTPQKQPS

Turning to `O=C(NC1CCC(=Cc2cccc(Oc3ccc(C(F)(F)F)cn3)c2)CC1)c1ccc(C2CC2)nc1` (stereo not shown) [Example 2.A-42, 6-Cyclopropyl-N-[4-[[3-[[5-(trifluoromethyl)-2-pyridyl]oxy]phenyl]methylene]cyclohexyl]pyridine-3-carboxamide], the IC50 in test [1] worked out at 14 nM; in test [2] (human FAAH) it was 13 nM.

With `CCc1ccc(C(=O)NC2CCC(=Cc3cccc(Oc4ccc(C(F)(F)F)cn4)c3)CC2)cn1` (stereo not shown) [Example 2.A-43, 6-Ethyl-N-[4-[[3-[[5-(trifluoromethyl)-2-pyridyl]oxy]phenyl]methylene]cyclohexyl]pyridine-3-carboxamide], the IC50 is 18 nM in test [1] and 4 nM in test [2] (human FAAH).

For `O=C(NC1CCC(=Cc2cccc(Oc3ccc(C(F)(F)F)cn3)c2)CC1)c1ccc(-c2cc[nH]n2)nc1` (stereo not shown) [Example 2.B-4, 6-(1H-Pyrazol-3-yl)-N-[4-[[3-[[5-(trifluoromethyl)-2-pyridyl]oxy]phenyl]methylene]cyclohexyl]pyridine-3-carboxamide], the IC50 turned out to be 11 nM in test [1] and 2 nM in test [2] (human FAAH).

With `O=C(NC1CCC(=Cc2cccc(Oc3ccc(C(F)(F)F)cn3)c2)CC1)c1ccc(-c2cn[nH]c2)nc1` (stereo not shown) [Example 2.B-5, 6-(1H-Pyrazol-4-yl)-N-[4-[[3-[[5-(trifluoromethyl)-2-pyridyl]oxy]phenyl]methylene]cyclohexyl]pyridine-3-carboxamide], the IC50 in test [1] is 9 nM; in test [2] (human FAAH) it was 2 nM.

As to `Cc1cnn(-c2ccc(C(=O)NC3CCC(=Cc4cccc(Oc5ccc(C(F)(F)F)cn5)c4)CC3)cn2)c1` (stereo not shown) [Example 2.B-6, 6-(4-Methylpyrazol-1-yl)-N-[4-[[3-[[5-(trifluoromethyl)-2-pyridyl]oxy]phenyl]methylene]cyclohexyl]pyridine-3-carboxamide], the IC50 in test [1] is 21 nM; in test [2] (human FAAH), 7 nM.

`O=C(NC1CCC(=Cc2cccc(Oc3ccc(C(F)(F)F)cn3)c2)CC1)c1cncc(-n2cccn2)c1` (stereo not shown) [Example 2.B-7, 5-Pyrazol-1-yl-N-[4-[[3-[[5-(trifluoromethyl)-2-pyridyl]oxy]phenyl]methylene]cyclohexyl]pyridine-3-carboxamide]: the figures for the IC50 in test [1] and in test [2] (human FAAH) were 85 nM and 6 nM, respectively.

Regarding `O=C(NC1CCC(=Cc2cccc(Oc3ccc(C(F)(F)F)cn3)c2)CC1)c1ccc(-n2cc(Cl)cn2)nc1` (stereo not shown) [Example 2.B-8, 6-(4-Chloropyrazol-1-yl)-N-[4-[[3-[[5-(trifluoromethyl)-2-pyridyl]oxy]phenyl]methylene]cyclohexyl]pyridine-3-carboxamide], the figures for the IC50 in test [1] and in test [2] (human FAAH) were 21 nM and 5 nM, respectively.

Consider `Cc1ccn(-c2ccc(C(=O)NC3CCC(=Cc4cccc(Oc5ccc(C(F)(F)F)cn5)c4)CC3)cn2)n1` (stereo not shown) [Example 2.B-9, 6-(3 -Methylpyrazol-1-yl)-N-[4-[[3-[[5-(trifluoromethyl)-2-pyridyl]oxy]phenyl]methylene]cyclohexyl]pyridine-3-carboxamide], for which the half-maximal inhibitory concentration (IC50) in test [1] is 22 nM; in test [2] (human FAAH), 9 nM.

`Cc1n[nH]c(C)c1-c1ccc(C(=O)NC2CCC(=Cc3cccc(Oc4ccc(C(F)(F)F)cn4)c3)CC2)cn1` (stereo not shown) [Example 2.B-11, 6-(3,5-Dimethyl-1H-pyrazol-4-yl)-N-[4-[[3-[[5-(trifluoromethyl)-2-pyridyl]oxy]phenyl]methylene]cyclohexyl]pyridine-3-carboxamide]: the IC50 in test [1] turned out to be 52 nM; in test [2] (human FAAH), 17 nM.

On to `O=C(NC1CCC(=Cc2cccc(Oc3ccc(C(F)(F)F)cn3)c2)CC1)c1ccc(-n2cnnc2)nc1` (stereo not shown) [Example 2.B-13, 6-(1,2,4-Triazol-4-yl)-N-[4-[[3-[[5-(trifluoromethyl)-2-pyridyl]oxy]phenyl]methylene]cyclohexyl]pyridine-3-carboxamide], for which the concentration for half-maximal inhibition (IC50) was 14 nM in test [1] and 2 nM in test [2].

For the compound `O=C(NC1CCC(=Cc2cccc(Oc3ccc(C(F)(F)F)cn3)c2)CC1)c1ccc(-n2ccnn2)nc1` (stereo not shown) [Example 2.B-14, 6-(Triazol-1-yl)-N-[4-[[3-[[5-(trifluoromethyl)-2-pyridyl]oxy]phenyl]methylene]cyclohexyl]pyridine-3-carboxamide], the half-inhibitory concentration (IC50) stood at 11 nM in test [1] and 2 nM in test [2].

With `O=C(NC1CCC(=Cc2cccc(Oc3ccc(C(F)(F)F)cn3)c2)CC1)c1ccc(-n2nccn2)nc1` (stereo not shown) [Example 2.B-15, 6-(Triazol-2-yl)-N-[4-[[3-[[5-(trifluoromethyl)-2-pyridyl]oxy]phenyl]methylene]cyclohexyl]pyridine-3-carboxamide], the IC50 in test [1] was 9 nM; in test [2] (human FAAH), 3 nM.

For `Nc1ccc(C(=O)NC2CCC(=Cc3cccc(Oc4ccc(C(F)(F)F)cn4)c3)CC2)cn1` (stereo not shown) [Example 2.C-1, 6-Amino-N-[4-[[3-[[5-(trifluoromethyl)-2-pyridyl]oxy]phenyl]methylene]cyclohexyl]pyridine-3-carboxamide], the results for the IC50 in test [1] and in test [2] were 31 nM and 5 nM, respectively.

For `COc1ccc(C(=O)NC2CCC(=Cc3cccc(Oc4ccc(C(F)(F)F)cn4)c3)CC2)cn1` (stereo not shown) [Example 2.C-2, 6-Methoxy-N-[4-[[3-[[5-(trifluoromethyl)-2-pyridyl]oxy]phenyl]methylene]cyclohexyl]pyridine-3-carboxamide], the IC50 was determined as 21 nM in test [1] and 5 nM in test [2].

For the compound `O=C(NC1CCC(=Cc2cccc(Oc3ccc(C(F)(F)F)cn3)c2)CC1)c1cncc(O)c1` (stereo not shown) [Example 2.C-4, 5-Hydroxy-N-[4-[[3-[[5-(trifluoromethyl)-2-pyridyl]oxy]phenyl]methylene]cyclohexyl]pyridine-3-carboxamide], the IC50 is 21 nM in test [1] and 4 nM in test [2] (human FAAH).

In the case of `Nc1ncc(C(=O)NC2CCC(=Cc3cccc(Oc4ccc(C(F)(F)F)cn4)c3)CC2)cn1` (stereo not shown) [Example 2.C-6, 2-Amino-N-[4-[[3-[[5-(trifluoromethyl)-2-pyridyl]oxy]phenyl]methylene]cyclohexyl]pyrimidine-5-carboxamide], the IC50 in test [1] turned out to be 16 nM; in test [2], 1 nM.

With `O=C(NC1CCC(=Cc2cccc(Oc3ccc(C(F)(F)F)cn3)c2)CC1)c1cnc2[nH]ccc2c1` [Example 2.D-5, N-[4-[[3-[[5-(Trifluoromethyl)-2-pyridyl]oxy]phenyl]methylene]cyclohexyl]-1H-pyrrolo[2,3-b]pyridine-5-carboxamide], the IC50 in test [1] amounted to 16 nM; in test [2] it was 2 nM.

In the case of `O=C(NC1CCC(=Cc2cccc(Oc3ccc(C(F)(F)F)cn3)c2)CC1)c1c[nH]c2ccccc12` [Example 2.D-6, N-[4-[[3-[[5-(Trifluoromethyl)-2-pyridyl]oxy]phenyl]methylene]cyclohexyl]-1H-indole-3-carboxamide], the results for the half-maximal inhibitory concentration (IC50) in test [1] and in test [2] were 87 nM and 10 nM, respectively.

As to `Cc1nc(Oc2cccc(C=C3CCC(NC(=O)c4ccc(N)nc4)CC3)c2)ccc1Cl` (stereo not shown) [Example 2.E-16, 6-Amino-N-[4-[[3-[(5-chloro-6-methyl-2-pyridyl)oxy]phenyl]methylene]cyclohexyl]pyridine-3-carboxamide], the figures for the 50% inhibitory concentration (IC50) in test [1] and in test [2] (human FAAH) were 24 nM and 3 nM, respectively.

Consider `Cc1nc(Oc2cccc(C=C3CCC(NC(=O)c4ccc(N)nc4)CC3)c2)ccc1C(F)(F)F` (stereo not shown) [Example 2.E-17, 6-Amino-N-[4-[[3-[[6-methyl-5-(trifluoromethyl)-2-pyridyl]oxy]phenyl]methylene]cyclohexyl]pyridine-3-carboxamide], for which the IC50 worked out at 27 nM in test [1] and 3 nM in test [2].

In the case of `Cc1nc(Oc2cccc(C=C3CCC(NC(=O)c4c[nH]nc4C(F)(F)F)CC3)c2)ccc1C(F)(F)F` (stereo not shown) [Example 2.E-18, N-[4-[[3-[[6-Methyl-5-(trifluoromethyl)-2-pyridyl]oxy]phenyl]methylene]cyclohexyl]-3-(trifluoromethyl)-1H-pyrazole-4-carboxamide], in test [1], the inhibition at 0.1 µM came out at 55%. In addition, in test [2] (human FAAH), the IC50 stood at 13 nM.

As to `Nc1ccc(C(=O)NC2CCC(=Cc3cccc(Oc4ccc(C(F)(F)F)c(C5CC5)n4)c3)CC2)cn1` (stereo not shown) [Example 2.E-19, 6-Amino-N-[4-[[3-[[6-cyclopropyl-5-(trifluoromethyl)-2-pyridyl]oxy]phenyl]methylene]cyclohexyl]pyridine-3-carboxamide], the inhibition at 0.1 µM in test [1] worked out at 40%; in test [2] (read-out: hFAAH % inhibition at 100 nM, human FAAH, 100 nM (tier I)), 40%.

Turning to `Nc1ccc(C(=O)NC2CCC(=Cc3cccc(Oc4ccc(C(F)(F)F)c(Cl)n4)c3)CC2)cn1` (stereo not shown) [Example 2.E-20, 6-Amino-N-[4-[[3-[[6-chloro-5-(trifluoromethyl)-2-pyridyl]oxy]phenyl]methylene]cyclohexyl]pyridine-3-carboxamide], the values for the IC50 in test [1] and in test [2] (human FAAH) were 71 nM and 3 nM, respectively.

As to `Cc1nc(Oc2cccc(C=C3CCC(NC(=O)c4cnc(N)nc4)CC3)c2)ccc1C(F)(F)F` (stereo not shown) [Example 2.E-22, 2-Amino-N-[4-[[3-[[6-methyl-5-(trifluoromethyl)-2-pyridyl]oxy]phenyl]methylene]cyclohexyl]pyrimidine-5-carboxamide], the IC50 in test [1] was 21 nM; in test [2] (human FAAH), 2 nM.

As to `Cc1cc(C(=O)NC2CCC(=Cc3cccc(Oc4ccc(C(F)(F)F)c(C)n4)c3)CC2)cnc1N` (stereo not shown) [Example 2.E-23, 6-Amino-5-methyl-N-[4-[[3-[[6-methyl-5-(trifluoromethyl)-2-pyridyl]oxy]phenyl]methylene]cyclohexyl]pyridine-3-carboxamide], the IC50 amounted to 65 nM in test [1] and 12 nM in test [2] (human FAAH).

Take `CCc1nc(Oc2cccc(C=C3CCC(NC(=O)c4ccc(N)nc4)CC3)c2)ccc1C(F)(F)F` (stereo not shown) [Example 2.E-24, 6-Amino-N-[4-[[3-[[6-ethyl-5-(trifluoromethyl)-2-pyridyl]oxy]phenyl]methylene]cyclohexyl]pyridine-3-carboxamide]: the inhibition at 0.1 µM in test [1] was found to be 47%. Moreover, the IC50 in test [2] (human FAAH) turned out to be 34 nM.
